Results as given in patent US5824647A, “Chemotactic wound healing peptides” (priority 1995, dated 1998).

What was measured:
[1] = tested on: human peripheral blood monocytes; test: Monocyte chemotaxis in modified Boyden chambers; assay type: cell-based; set-up: key to Monocyte Migration: NE = No Effect
Excerpt: Human peripheral blood neutrophils and monocytes, isolated from whole blood using standard techniques may also be used in the chemotaxis assays, in a manner similar to infant foreskin fibroblasts, to measure the chemotactic activity of the peptides towards inflammatory cells. Such cells may also be maintained in supplemented MEM as above, to which 5-10% FCS may be added. When using neutrophils and monocytes, instead of fibroblasts, the polycarbonate filters used in the modified Boyden chambers had pore sizes of 2 and 3 microns, respectively. As above, all assays were carried out in quadruplicate.
The following 7-mer peptides (peptides 368-374, corresponding to amino acids 368-374 of human TGF-β1): VYYVGRK (SEQ ID NO. 1), LYYIGKT (SEQ ID NO. 2), LYYVGRT (SEQ ID NO. 3), IYYVGRN (SEQ ID NO. 4) and IYYVGRT (SEQ ID NO. 5) were synthesized by the Merrifield technique, purified by HPLC, and tested at different concentrations in the same assay for their ability to stimulate chemotaxis of human peripheral blood monocytes in vitro modified Boyden chambers.

[2] = tested on: infant foreskin fibroblasts; test: Collagen production by fibroblasts (modified Peterofsky-Diegelman assay); assay type: cell-based, human; set-up: key to FIBROBLAST EFFECTS Collagen: NE = No Effect
Procedure: The peptides of the invention were also found to stimulate collagen production by fibroblasts. Collagen production by fibroblasts in response to the peptides of the present invention was measured utilizing a modified Peterofsky-Diegelman assay. The assay is used to determine whether the peptides of the invention stimulate or inhibit collagen production by fibroblasts.
Low passage (4-12 subpassages) infant foreskin fibroblasts were plated out at a density of 10^5 cells/well in Falcon 3008 multiwell plates in complete maintenance medium containing 10% FCS. After cells reached confluency (72 hr), the medium was changed daily for 3 days, each time being replaced with serum-free maintenance medium containing fresh ascorbic acid. Samples (50 μl) were added to triplicate wells containing 450 μl serum-free MEM supplemented with fresh ascorbic acid and [^3 H]-proline (sp. act. 20 Ci/mmole), but no non-essential amino acids. After an additional 24 hr of culture, supernatants were reacted with protease-free bacterial collagenase to digest all collagen. Similar aliquots of unreacted supernatants and bacterial collagenase-treated supernatants were precipitated with cold 10% trichloroacetic acid (TCA) and were centrifuged for 5 minutes in a Beckman microfuge. Aliquots of the supernatants, after TCA precipitated proteins were pelleted, were placed in vials containing Hydrofluor and then were counted in a scintillation counter. CPM from TCA precipitated supernatants not reacted with bacterial collagenase were subtracted from each culture. The resulting CPM was a reflection of the collagen produced by that culture.
A modified Peterofsky-Diegelmann assay was used to screen peptide samples for their ability to stimulate or inhibit collagen production. Low passage (4-12 subpassages) infant foreskin fibroblast were plated out at a density of 10^5 cells/well of Falcon 3008 multiwell plates in complete maintenance medium containing 10% FCS. After cells reached confluency (72 hr) the medium was changed daily for 3 days, each time being replaced with serum-free maintenance medium containing fresh ascorbic acid. Samples ([…]) were added to triplicate wells containing […] serum free MEM supplemented with fresh ascorbic acid and [^3 H]-proline (sp. act. 20 Ci/mmole), but no non-essential amino acids. After an additional 24 hours of culture, supernatants were reacted with protease-free bacterial collagenase to digest all collagen. Similar aliquots of unreacted supernatants and bacterial collagenase-treated supernatants were precipitated with cold 10% trichloroacetic acid (TCA) and were centrifuged for 5 minutes in a Beckman microfuge. Aliquots of the supernatants, after TCA precipitated proteins were pelleted, were placed in vials containing Hydrofluor and then were counted in a scintillation counter. CPM from TCA precipitated supernatants not reacted with bacterial collagenase were subtracted from each culture. The resulting CPM was a reflection of the collagen produced by that culture.
Collagen production was measured following administration of the various 7-mer peptides 368-374 (SEQ ID NOs. 1-5) to fibroblasts. Peptides […] (SEQ ID NO. 1), LYYIGKT (SEQ ID NO. 2), LYYVGRT (SEQ ID NO. 3), IYYVGRN (SEQ ID NO. 4) and IYYVGRT (SEQ ID NO. 5) were synthesized by the Merrifield technique, purified by HPLC, and tested at different concentrations in the same assay for their ability to stimulate production of collagen in confluent cultures of infant foreskin fibroblasts. Collagen production was measured by incorporation of [^3 H]proline into collagenase-sensitive protein. All samples were tested in triplicate, and values represent the mean of triplicate determinations. Data are expressed as "% stimulation" of collagen production relative to control production in cultures with plain culture medium only added. […]

[3] = tested on: infant foreskin fibroblasts; test: as above; assay type: cell-based, human; conditions: [3H]proline incorporation into collagenase-sensitive protein; listed as LYYIGRT
[4] = tested on: infant foreskin fibroblasts; test: Fibroblast chemotaxis in modified Boyden chambers (incl. checkerboard and deactivation studies); assay type: cell-based, human; set-up: key to FIBROBLAST EFFECTS Migration: NE = No Effect
Procedure: Target cells used in in vitro chemotaxis assays were infant foreskin fibroblasts obtained by establishing monolayer cultures from explants of tissue. Cells were maintained in Eagle's minimum essential medium (MEM) supplemented with non-essential amino acids, antibiotics, 50 ug/ml ascorbic acid, and 9% fetal calf serum (FCS). Cells were passaged by trypsinization every 3-5 days.
Infant foreskin fibroblasts were harvested from monolayer culture by gentle trypsinization, washed twice in serum-free Eagles's MEM and adjusted to a final concentration of 250,000 cells/ml. The cell suspension (0.4 ml) was added to the upper compartments of blind well modified Boyden chemotaxis chambers. The peptides of the invention being assayed for chemotactic activity were solubilized in glycylglycine (0.015M) buffered NaCl (0.14M), pH 7.2, hereinafter referred to as GGBS, and diluted 50% with serum-free MEM. Test substances were added to the lower compartment of the chemotaxis chambers. Gelatin-treated polycarbonate filters (8 micron pore size) were interposed between the lowest compartment and the upper cell compartment. Loaded chambers were incubated at 37° C. in a humidified atmosphere containing 5% CO2 for 150 minutes. After incubation, the chambers were disassembled, the filters removed, stained with hematoxylin, and mounted on glass cover slips. Fibroblast chemotaxis was quantitated by counting the number of fibroblasts in 20 oil immersion fields (OIF) that migrated and adhered to the lower surface of each filter. Samples were tested in quadruplicate and results are expressed as mean number of fibroblasts per 20 OIF±standard error of the mean (SEM). Chemotaxis neutralization studies were performed by adding TGF-β1 or fibronectin to the upper cell compartment and testing for effects on fibroblast migration to the TGF-β peptides.
Zigmond-Hirsch checkerboard analysis (Zigmond & Hirsch, J. Exptl. Med. 137:387, 1972) was performed to determine whether the 7-mer peptide 368-374 (Val Tyr Tyr Val Gly Arg Lys) induced chemotaxis of fibroblasts, monocytes and neutrophils.
Deactivation studies were utilized to determine whether the peptides of the invention containing the 7-mer peptide amino acid sequence induced chemotaxis via cellular receptors and mechanisms utilized by intact TGF-β.

[5] = tested on: fibroblasts; test: HLA-DR, fibroblast effects; assay type: cell-based; set-up: key: NE = No Effect; conditions: Table II summary
[6] = tested on: fibroblasts; test: Hyaluronate production by fibroblasts; assay type: cell-based; set-up: key to FIBROBLAST EFFECTS Hyaluronate: NE = No Effect; conditions: Table II summary
[7] = peptide in lower compartment of modified Boyden chamber

Substance	monocyte chemotaxis / migration (in words) [1, 7]	collagen production by fibroblasts (in words) ([2]; [3H]proline incorporation into collagenase-sensitive protein)	collagen production by fibroblasts (in words) [3]	fibroblast chemotaxis / migration (in words) [4, 7]	Monocyte Migration ([1]; Table II summary)	FIBROBLAST EFFECTS HLA-DR [5]	FIBROBLAST EFFECTS Collagen ([2]; Table II summary)	FIBROBLAST EFFECTS Hyaluronate [6]	FIBROBLAST EFFECTS Migration ([4]; Table II summary)
LYYIGKT [7-mer peptide 368-374 homolog]	induced monocyte chemotaxis at all of the concentrations tested	stimulated collagen production to some degree	stimulated collagen production	induced fibroblast chemotaxis at all of the concentration tested					
280-339: synthetic peptide 280-339, corresponds to the amino terminal portion of TGF-β1 monomer (ALDTNYCFSSTEKNCCVRQLYIDFRKDLGWKWIHEPKGYHANFCLGPCPYIWSLDTQYSK; printed: Ala Leu Asp Thr Asn Tyr Cys Phe Ser Ser Thr Glu Lys Asn Cys Cys Val Arg Gln Leu Tyr Ile Asp Phe Arg Lys Asp Leu Gly Trp Lys Trp Ile His Glu Pro Lys Gly Tyr His Ala Asn Phe Cys Leu Gly Pro Cys Pro Tyr Ile Trp Ser Leu Asp Thr Gln Tyr Ser Lys)					NE	NE	NE	NE	NE
